Where two headings read alike, the source gives them in different places. One block for each compound: values may come before it.
Experiments:
Assay in all cases: biochemical
Set-up in all cases: DiscoveRx KINOMEscan active site-directed competition binding; percent of control kinase bound to immobilised ligand
[1] = target: T1, CTK (Homo sapiens, UniProt P42679)
T1 construct: gene MATK
T1 sequence (P42679 1-507): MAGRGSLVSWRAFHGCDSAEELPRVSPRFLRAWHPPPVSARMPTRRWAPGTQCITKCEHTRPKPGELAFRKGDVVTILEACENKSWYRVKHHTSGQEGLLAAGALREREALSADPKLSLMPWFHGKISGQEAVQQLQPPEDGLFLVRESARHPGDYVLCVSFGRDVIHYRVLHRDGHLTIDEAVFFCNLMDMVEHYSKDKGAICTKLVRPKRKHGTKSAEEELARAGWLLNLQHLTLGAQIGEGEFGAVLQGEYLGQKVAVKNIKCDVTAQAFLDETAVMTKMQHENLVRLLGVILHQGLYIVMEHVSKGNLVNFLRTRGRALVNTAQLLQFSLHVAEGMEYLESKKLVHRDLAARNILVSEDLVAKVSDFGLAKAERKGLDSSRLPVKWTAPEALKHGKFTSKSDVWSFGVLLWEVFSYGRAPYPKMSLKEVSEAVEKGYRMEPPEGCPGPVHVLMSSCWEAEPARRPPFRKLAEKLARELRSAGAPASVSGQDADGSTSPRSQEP

[2] = target: LCK (Homo sapiens, UniProt P06239)
LCK, sequence (P06239 whole entry): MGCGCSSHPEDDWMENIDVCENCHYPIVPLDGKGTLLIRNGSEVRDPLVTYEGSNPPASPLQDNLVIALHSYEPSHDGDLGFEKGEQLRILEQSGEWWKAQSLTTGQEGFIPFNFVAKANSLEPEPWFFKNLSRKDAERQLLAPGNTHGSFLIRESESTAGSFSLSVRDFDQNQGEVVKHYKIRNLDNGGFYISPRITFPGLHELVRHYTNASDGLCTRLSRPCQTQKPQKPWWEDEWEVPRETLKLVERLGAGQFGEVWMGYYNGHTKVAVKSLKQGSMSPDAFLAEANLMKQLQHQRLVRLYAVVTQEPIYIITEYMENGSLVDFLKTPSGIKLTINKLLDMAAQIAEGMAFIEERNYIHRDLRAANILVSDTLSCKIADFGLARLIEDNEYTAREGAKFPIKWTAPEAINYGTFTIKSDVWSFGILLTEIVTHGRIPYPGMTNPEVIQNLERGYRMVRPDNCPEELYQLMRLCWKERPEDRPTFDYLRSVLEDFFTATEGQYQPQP

[3] = target: T2, MEK6 (Homo sapiens, UniProt P52564)
T2 construct: gene MAP2K6
T2 sequence (P52564 1-334): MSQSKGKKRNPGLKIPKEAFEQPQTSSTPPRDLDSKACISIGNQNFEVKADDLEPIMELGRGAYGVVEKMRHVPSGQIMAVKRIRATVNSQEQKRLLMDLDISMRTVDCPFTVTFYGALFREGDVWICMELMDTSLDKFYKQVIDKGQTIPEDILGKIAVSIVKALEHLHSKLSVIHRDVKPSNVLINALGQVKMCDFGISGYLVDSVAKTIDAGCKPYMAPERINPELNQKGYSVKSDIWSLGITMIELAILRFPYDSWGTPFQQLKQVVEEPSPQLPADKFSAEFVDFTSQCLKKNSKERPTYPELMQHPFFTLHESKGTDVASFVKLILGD

[4] = target: FRK (Homo sapiens, UniProt P42685)
FRK, sequence (P42685 whole entry): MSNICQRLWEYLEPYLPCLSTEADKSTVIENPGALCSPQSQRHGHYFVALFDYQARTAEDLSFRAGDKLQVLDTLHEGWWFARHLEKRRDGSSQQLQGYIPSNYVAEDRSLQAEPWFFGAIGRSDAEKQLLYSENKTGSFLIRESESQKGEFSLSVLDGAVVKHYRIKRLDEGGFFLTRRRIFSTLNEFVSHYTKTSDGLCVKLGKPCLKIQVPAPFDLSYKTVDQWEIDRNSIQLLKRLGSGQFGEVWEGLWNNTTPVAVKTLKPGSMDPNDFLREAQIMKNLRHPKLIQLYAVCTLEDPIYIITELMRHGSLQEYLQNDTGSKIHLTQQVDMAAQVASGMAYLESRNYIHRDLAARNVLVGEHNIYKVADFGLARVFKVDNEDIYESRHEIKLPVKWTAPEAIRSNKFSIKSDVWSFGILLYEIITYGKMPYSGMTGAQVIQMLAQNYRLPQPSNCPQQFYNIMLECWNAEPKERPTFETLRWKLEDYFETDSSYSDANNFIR

[5] = target: MTOR (Homo sapiens, UniProt P42345)
[6] = target: GSK3A (Homo sapiens, UniProt P49840)
GSK3A, sequence (P49840 whole entry): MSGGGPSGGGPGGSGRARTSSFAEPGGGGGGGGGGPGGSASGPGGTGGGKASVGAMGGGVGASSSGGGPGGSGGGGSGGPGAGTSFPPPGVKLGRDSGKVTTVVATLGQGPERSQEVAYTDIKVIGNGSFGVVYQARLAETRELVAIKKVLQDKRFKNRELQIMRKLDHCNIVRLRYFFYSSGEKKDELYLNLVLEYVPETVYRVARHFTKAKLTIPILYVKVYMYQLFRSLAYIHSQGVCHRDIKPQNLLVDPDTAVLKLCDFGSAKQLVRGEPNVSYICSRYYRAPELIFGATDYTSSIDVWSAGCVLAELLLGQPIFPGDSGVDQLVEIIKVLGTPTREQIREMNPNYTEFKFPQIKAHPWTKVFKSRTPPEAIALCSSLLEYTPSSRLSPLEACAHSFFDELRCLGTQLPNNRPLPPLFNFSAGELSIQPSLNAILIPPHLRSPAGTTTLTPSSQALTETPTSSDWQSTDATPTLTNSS

[7] = target: PIKFYVE (Homo sapiens, UniProt Q9Y2I7)
PIKFYVE, sequence (Q9Y2I7 whole entry): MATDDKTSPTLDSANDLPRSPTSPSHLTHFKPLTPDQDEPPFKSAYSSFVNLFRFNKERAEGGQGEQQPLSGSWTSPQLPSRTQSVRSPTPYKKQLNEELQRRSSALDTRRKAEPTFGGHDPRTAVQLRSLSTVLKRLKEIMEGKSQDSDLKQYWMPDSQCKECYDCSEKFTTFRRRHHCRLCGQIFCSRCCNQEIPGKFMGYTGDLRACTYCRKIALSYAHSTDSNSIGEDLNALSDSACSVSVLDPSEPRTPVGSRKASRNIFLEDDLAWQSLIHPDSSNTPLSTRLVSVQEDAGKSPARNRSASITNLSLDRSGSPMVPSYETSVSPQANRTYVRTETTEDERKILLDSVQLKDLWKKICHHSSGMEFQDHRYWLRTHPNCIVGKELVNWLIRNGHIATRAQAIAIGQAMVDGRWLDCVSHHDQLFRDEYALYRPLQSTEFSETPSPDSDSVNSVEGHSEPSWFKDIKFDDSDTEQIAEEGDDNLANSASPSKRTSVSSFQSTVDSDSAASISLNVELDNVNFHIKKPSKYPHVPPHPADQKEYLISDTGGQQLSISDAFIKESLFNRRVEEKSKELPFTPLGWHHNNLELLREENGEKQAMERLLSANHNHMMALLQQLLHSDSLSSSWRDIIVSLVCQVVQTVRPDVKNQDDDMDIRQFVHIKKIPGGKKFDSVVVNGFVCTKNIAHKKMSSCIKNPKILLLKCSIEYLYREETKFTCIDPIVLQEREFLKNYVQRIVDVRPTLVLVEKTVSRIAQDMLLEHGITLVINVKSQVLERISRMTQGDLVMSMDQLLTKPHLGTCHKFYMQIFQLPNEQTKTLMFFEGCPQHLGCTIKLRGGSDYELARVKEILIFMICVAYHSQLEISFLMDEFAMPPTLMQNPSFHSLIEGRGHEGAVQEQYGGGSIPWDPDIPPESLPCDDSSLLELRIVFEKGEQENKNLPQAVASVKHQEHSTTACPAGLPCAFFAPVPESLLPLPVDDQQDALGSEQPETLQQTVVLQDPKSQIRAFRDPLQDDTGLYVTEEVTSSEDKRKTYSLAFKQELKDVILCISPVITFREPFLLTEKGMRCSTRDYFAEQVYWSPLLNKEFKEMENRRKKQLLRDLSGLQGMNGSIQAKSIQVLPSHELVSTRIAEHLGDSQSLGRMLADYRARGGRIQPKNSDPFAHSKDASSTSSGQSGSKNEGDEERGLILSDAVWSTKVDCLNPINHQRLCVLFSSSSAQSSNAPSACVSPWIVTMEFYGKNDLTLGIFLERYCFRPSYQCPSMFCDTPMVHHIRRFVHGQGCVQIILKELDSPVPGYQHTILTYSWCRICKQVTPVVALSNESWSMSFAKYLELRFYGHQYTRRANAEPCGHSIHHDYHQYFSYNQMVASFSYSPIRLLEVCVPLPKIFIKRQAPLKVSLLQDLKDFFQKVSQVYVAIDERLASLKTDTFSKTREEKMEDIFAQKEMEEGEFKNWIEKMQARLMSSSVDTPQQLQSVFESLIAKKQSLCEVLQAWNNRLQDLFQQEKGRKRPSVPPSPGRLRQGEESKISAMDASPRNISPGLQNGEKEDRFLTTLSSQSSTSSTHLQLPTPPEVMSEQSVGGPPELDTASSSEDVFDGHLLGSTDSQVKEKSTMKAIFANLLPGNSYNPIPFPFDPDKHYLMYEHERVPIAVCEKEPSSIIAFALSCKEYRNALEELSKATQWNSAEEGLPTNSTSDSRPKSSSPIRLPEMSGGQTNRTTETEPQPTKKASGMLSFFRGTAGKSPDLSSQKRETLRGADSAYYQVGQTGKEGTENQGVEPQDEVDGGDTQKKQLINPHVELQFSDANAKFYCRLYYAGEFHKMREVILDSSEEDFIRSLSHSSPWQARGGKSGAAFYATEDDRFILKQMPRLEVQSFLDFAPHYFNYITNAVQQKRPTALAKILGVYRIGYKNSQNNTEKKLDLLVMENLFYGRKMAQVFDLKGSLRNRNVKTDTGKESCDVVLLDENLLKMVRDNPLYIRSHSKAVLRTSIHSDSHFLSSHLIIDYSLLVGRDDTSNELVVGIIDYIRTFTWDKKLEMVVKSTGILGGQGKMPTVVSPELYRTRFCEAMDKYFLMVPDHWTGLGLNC

[8] = target: ERN1 (Homo sapiens, UniProt O75460)
ERN1, sequence (O75460 whole entry): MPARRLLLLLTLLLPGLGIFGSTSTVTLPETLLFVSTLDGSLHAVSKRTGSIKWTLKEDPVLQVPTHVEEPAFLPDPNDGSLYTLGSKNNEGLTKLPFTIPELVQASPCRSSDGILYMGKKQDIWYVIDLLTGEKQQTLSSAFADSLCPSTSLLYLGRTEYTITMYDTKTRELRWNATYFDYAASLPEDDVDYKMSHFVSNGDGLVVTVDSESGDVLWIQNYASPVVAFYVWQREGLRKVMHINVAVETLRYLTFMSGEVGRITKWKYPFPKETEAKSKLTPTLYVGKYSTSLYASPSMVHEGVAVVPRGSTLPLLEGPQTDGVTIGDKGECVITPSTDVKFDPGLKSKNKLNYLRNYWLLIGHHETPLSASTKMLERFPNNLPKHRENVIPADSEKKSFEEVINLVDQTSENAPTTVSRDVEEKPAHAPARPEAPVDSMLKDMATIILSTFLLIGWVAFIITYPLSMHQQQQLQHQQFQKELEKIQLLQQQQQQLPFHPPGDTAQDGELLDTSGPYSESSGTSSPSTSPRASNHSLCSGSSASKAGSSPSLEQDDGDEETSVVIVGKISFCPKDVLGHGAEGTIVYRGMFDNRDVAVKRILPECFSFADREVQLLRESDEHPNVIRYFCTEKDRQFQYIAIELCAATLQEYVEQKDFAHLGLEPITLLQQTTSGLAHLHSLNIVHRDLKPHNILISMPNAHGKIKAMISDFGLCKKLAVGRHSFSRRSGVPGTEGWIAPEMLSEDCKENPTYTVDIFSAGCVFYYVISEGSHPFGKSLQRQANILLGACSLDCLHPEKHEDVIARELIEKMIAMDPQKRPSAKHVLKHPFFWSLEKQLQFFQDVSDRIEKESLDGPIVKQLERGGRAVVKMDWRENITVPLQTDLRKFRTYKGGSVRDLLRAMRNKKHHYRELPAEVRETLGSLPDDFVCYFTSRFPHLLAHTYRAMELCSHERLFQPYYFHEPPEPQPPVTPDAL

[9] = target: T3, TAK1 (Homo sapiens, UniProt O43318)
T3 construct: gene MAP3K7
T3 sequence (O43318 1-606): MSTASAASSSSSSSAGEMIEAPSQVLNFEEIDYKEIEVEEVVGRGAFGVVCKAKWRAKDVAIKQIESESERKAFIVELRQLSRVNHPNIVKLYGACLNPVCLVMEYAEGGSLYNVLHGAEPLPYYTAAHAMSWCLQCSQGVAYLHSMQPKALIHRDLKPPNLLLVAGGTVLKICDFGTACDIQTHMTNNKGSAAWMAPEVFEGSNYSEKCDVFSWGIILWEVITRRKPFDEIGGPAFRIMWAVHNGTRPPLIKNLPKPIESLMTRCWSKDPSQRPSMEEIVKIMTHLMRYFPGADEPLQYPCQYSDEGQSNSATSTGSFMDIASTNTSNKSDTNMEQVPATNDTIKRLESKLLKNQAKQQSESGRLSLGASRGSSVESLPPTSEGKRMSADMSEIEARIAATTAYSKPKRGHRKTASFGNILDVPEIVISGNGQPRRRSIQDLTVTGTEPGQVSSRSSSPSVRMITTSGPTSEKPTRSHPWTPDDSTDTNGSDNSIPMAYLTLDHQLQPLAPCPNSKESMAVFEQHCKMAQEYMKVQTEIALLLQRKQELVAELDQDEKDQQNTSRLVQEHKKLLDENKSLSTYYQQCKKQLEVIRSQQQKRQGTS

[10] = read-out: Niraparib (MK-4827) / %Ctrl @ 10000nM
[11] = read-out: Olaparib / %Ctrl @ 10000nM
[12] = read-out: Rucaparib / %Ctrl @ 10000nM, binding competition, % of control
[13] = read-out: Talazoparib (BMN 673) / %Ctrl @ 10000nM

SMILES: NC(=O)c1cccc2cn(-c3ccc([C@@H]4CCCNC4)cc3)nc12 [Niraparib]
percent of control binding at 10 µM [1, 10]: 100%
percent of control binding at 10 µM [2, 10]: 82%
percent of control binding at 10 µM [3, 10]: 95%
percent of control binding at 10 µM [4, 10]: 91%
percent of control binding at 10 µM [5, 10]: 85%
percent of control binding at 10 µM [6, 10]: 48%
percent of control binding at 10 µM [7, 10]: 75%
percent of control binding at 10 µM [8, 10]: 100%
percent of control binding at 10 µM [9, 10]: 38%

percent of control binding at 10 µM [1, 11]: 96%
percent of control binding at 10 µM [2, 11]: 100%
percent of control binding at 10 µM [3, 11]: 86%
percent of control binding at 10 µM [4, 11]: 90%
percent of control binding at 10 µM [5, 11]: 94%
percent of control binding at 10 µM [6, 11]: 95%
percent of control binding at 10 µM [7, 11]: 100%
percent of control binding at 10 µM [8, 11]: 88%
percent of control binding at 10 µM [9, 11]: 77%
SMILES: O=C(c1cc(Cc2n[nH]c(=O)c3ccccc23)ccc1F)N1CCN(C(=O)C2CC2)CC1 [Olaparib]

percent of control binding at 10 µM [1, 12]: 76%
percent of control binding at 10 µM [2, 12]: 95%
percent of control binding at 10 µM [3, 12]: 81%
percent of control binding at 10 µM [4, 12]: 97%
percent of control binding at 10 µM [5, 12]: 96%
percent of control binding at 10 µM [6, 12]: 21%
percent of control binding at 10 µM [7, 12]: 92%
percent of control binding at 10 µM [8, 12]: 75%
percent of control binding at 10 µM [9, 12]: 38%
SMILES: CNCc1ccc(-c2[nH]c3cc(F)cc4c3c2CCNC4=O)cc1 [Rucaparib]

percent of control binding at 10 µM [1, 13]: 78%
percent of control binding at 10 µM [2, 13]: 90%
percent of control binding at 10 µM [3, 13]: 83%
percent of control binding at 10 µM [4, 13]: 85%
percent of control binding at 10 µM [5, 13]: 35%
percent of control binding at 10 µM [6, 13]: 100%
percent of control binding at 10 µM [7, 13]: 80%
percent of control binding at 10 µM [8, 13]: 91%
percent of control binding at 10 µM [9, 13]: 100%
SMILES: Cn1ncnc1[C@H]1c2n[nH]c(=O)c3cc(F)cc(c23)N[C@@H]1c1ccc(F)cc1 [Talazoparib]
